# Columns and labels:
# [1] = Pharmacokinetic interaction between atazanavir and the Compound: EVG/ATV versus EVG/r crossover in healthy subjects; conditions: for half-life: human, plasma
# Experimental: This study evaluated the safety and steady-state pharmacokinetics of the co-administered Compound and ATV.
# (§1) Healthy subjects received EVG/r 300/100 mg or EVG/ATV 300/400 mg in a randomized, crossover manner for 10 days each, with the last dose being coadministered with the CYP3A probe substrate midazolam (oral syrup; 5 mg) and pharmacokinetic (PK) sampling performed. […] ATV, midazolam, and ritonavir pharmacokinetics were also determined for descriptive statistics.
# [2] = Similar studies of the effect of five protease inhibitors on the pharmacokinetics of the Compound; format: in vivo; conditions: protease inhibitors with ritonavir 100 mg QD to 200 mg BID
# Experimental: These studies employed various doses of ritonavir (100 mg QD to 200 mg BID).
# [3] = test system: CYP3A; assay: CYP3A probe substrate midazolam pharmacokinetics with EVG/ATV versus EVG/r; conditions: midazolam oral syrup 5 mg with last dose; EVG/ATV vs. EVG/r
# Experimental: as §1
# [4] = Pharmacokinetic interaction between atazanavir/r and the Compound, steady-state PK in healthy subjects (studies 1 and 2); format: in vivo, human; conditions: for AUCtau % GMR (90% CI) / Cmax % GMR (90% CI) / Ctau % GMR (90% CI): coadministration:alone, 14 days
# Text: In study 1, 33/61 and study 2, 19/30 subjects completed each study; discontinuations were mostly for known ATV adverse events.
# [5] = ATV 400 mg coadministered with EVG 300 mg
# [6] = EVG/ATV 300/400 mg vs. EVG/r 300/100 mg, 10 days each, n=14
# [7] = Study 1, the Compound 200 mg (test and reference) + ATV/r 300/100 mg QD, n=33
# [8] = Study 2, the Compound test 85 mg, reference 150 mg, ATV/r 300/100 mg QD, n=20
compound,measurement,setting,value
"COC(=O)N[C@H](C(=O)N[C@@H](Cc1ccccc1)[C@@H](O)CN(Cc1ccc(-c2ccccn2)cc1)NC(=O)[C@@H](NC(=O)OC)C(C)(C)C)C(C)(C)C [ATV, 1-[4-(pyridine-2-yl)-phenyl]-4(S)-2,5-bis-[N-(N-methoxycarbonyl-(L)-tert-leucyl)amino]-6-phenyl-2-axahexane, reference compound]",AUCtau and Ctau compared with historical data,[1]; [5],lower than historical data
same,Mean (% CV) Ctau,[1]; [5],74.5 (45.7%) ng/ml
same,effect on the pharmacokinetics of the Compound,[2],improved pharmacokinetic effect
Cc1ncc2n1-c1ccc(Cl)cc1C(c1ccccc1F)=NC2 [midazolam],AUCinf geometric mean ratio (90% CI),[3],"89.5 (80.7, 99.3) %"
same,Cmax geometric mean ratio (90% CI),[3],"98.8 (89.6, 109) %"
"COc1cc2c(cc1Cc1cccc(Cl)c1F)c(=O)c(C(=O)O)cn2[C@H](CO)C(C)C [the Compound, 6-(3-chloro-2-fluorobenzyl)-1-[(2S)-1-hydroxy-3-methylbutan-2-yl]-7-methoxy-4-oxo-1,4-dihydroquinoline-3-carboxylic acid]",systemic exposure,[1]; 300 mg of the Compound with atazanavir versus 300 mg with ritonavir,equivalent
same,AUCtau geometric mean ratio (90% CI),[1]; [6],"107 (95.6, 119) %"
same,Cmax geometric mean ratio (90% CI),[1]; [6],"108 (99, 119) %"
same,Ctau geometric mean ratio (90% CI),[1]; [6],"89.9 (71.4, 113) %"
same,adverse events,"[1]; EVG/r 300/100 mg or EVG/ATV 300/400 mg, 10 days each, healthy subjects",No grade 4 AE or serious AE were observed
same,half-life,"[1]; median T1/2, EVG/ATV 300/400 mg",5.2 h
same,half-life,"[1]; median T1/2, EVG/r 300/100 mg",6.3 h
same,systemic exposure,[4]; 85 mg of the Compound with ritonavir-boosted atazanavir versus 150 mg dose of the Compound alone,equivalent
same,AUCtau % GMR (90% CI),[4]; [7],200%
same,Cmax % GMR (90% CI),[4]; [7],185%
same,Ctau % GMR (90% CI),[4]; [7],288%
same,AUCtau % GMR (90% CI),[4]; [8],107%
same,Cmax % GMR (90% CI),[4]; [8],90.9%
same,Ctau % GMR (90% CI),[4]; [8],138%
same,exposures upon coadministration with ATV/r,[4]; coadministration with ATV/r,elevated

# — US20100331331A1, “THERAPEUTIC COMPOSITIONS AND THE USE THEREOF” (priority 2007, published 2010)
